The text below walks through data of patent US6218393A, “Anthranilic acid derivatives as multi drug resistance modulators” (priority 1997, dated 2001).

Structures are written as SMILES. pIC50: −log10 of the molar value.

Series [1] deals with AR 1.0 cells. As to the kind of experiment: Drug accumulation assay: daunorubicin accumulation in AR 1.0 cells. The following applies: Mus musculus, 100% = accumulation with verapamil 100 μM, 1 hr, 37° C. It is filed as cell-based. A digest of the protocol:
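Daunorubicin accumulation was measured in cells plated 48 h beforehand. These were AR 1.0 cells, an MDR-resistant derivative of mouse EMT6 mammary carcinoma, cultured at 37 °C in 5% CO2 in RPMI 1640 plus 10% foetal calf serum and 2 mM glutamine.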

Series [2] deals with AR 1.0 cells. As to the kind of experiment: Potentiation of doxorubicin toxicity: proliferation assay (sulphorhodamine B). It is filed as cell-based, mouse. The source says: (a) Selected compounds of formula (I) were examined for their ability to potentiate the toxicity of doxorubicin in AR 1.0 cells.
The subject of series [3] is AR 1.0 cells. Briefly: Potentiation index with doxorubicin titration. The format is cell-based, mouse. The following applies: for Potentiation Index at RMA concentration 10 nM: Table C2, RMA 10 nM; for Potentiation Index at RMA concentration 30 nM: Table C2, RMA 30 nM; for Potentiation Index at RMA concentration 100 nM: Table C2, RMA 100 nM; for Potentiation Index at RMA concentration 300 nM: Table C2, RMA 300 nM; for Potentiation Index at RMA concentration 500 nM: Table C2, RMA 500 nM. The method in brief:
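Doxorubicin IC50 in AR 1.0 cells (MDR subline of EMT6 mouse mammary carcinoma) determined by sulphorhodamine B after 4-day culture across 0.263 nM-17.24 μM, with and without a fixed dose of test compound; their ratio gives the PI.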

The mark [4] stands for this setting: Mus musculus, 96 h, compound alone, four day proliferation, read-out: Compound Toxicity (IC50).
Setting [5] is: with fixed doxorubicin 0.34 μm, four days, 5760 min, read-out: Toxicity with Cytotoxic Agent (IC50).

For `COc1cc2c(cc1OC)CN(CCc1ccc(NC(=O)c3cc(Cl)ccc3NC(=O)c3cnc4ccccc4c3)cc1)CC2` [compound 9593, Quinoline-3-carboxylic acid (2-{4-[2-(6,7-dimethoxy-3,4-dihydro-1H-isoquinolin-2-yl)-ethyl]-phenylcarbamoyl}-4-chloro-phenyl)-amide], the pIC50 (usually the IC50 on a negative log10 scale, so that one unit is a factor of ten) in series [1] is 7.85. Further, the pIC50 in series [2] (setting [4]) is 5.15. Also, in series [3], the “Potentiation Index at RMA concentration 10 nM” value is given as 6 and the “Potentiation Index at RMA concentration 30 nM” value was 57.
For the compound `COc1cc2c(cc1OC)CN(CCc1ccc(NC(=O)c3ccc(C(F)(F)F)cc3NC(=O)c3cnc4ccccc4n3)cc1)CC2` [compound 9561, Quinoxaline-2-carboxylic acid (2-{4-[2-(6,7-dimethoxy-3,4-dihydro-1H-isoquinolin-2-yl)-ethyl]-phenylcarbamoyl}-5-trifiuoromethyl-phenyl)-amide], the pIC50 in series [1] was 7.26; in series [2] (setting [4]), 4.89; in series [2] (setting [5]), 8.00. Also, the “Potentiation Index at RMA concentration 10 nM” value in series [3] came out at 14. Besides, in series [3], the “Potentiation Index at RMA concentration 30 nM” value is given as 60. In addition, the “Potentiation Index at RMA concentration 100 nM” value in series [3] is listed as 100.
Consider `COc1ccc(C(=O)Nc2ccccc2C(=O)Nc2ccc(CCN3CCc4cc(OC)c(OC)cc4C3)cc2)cc1` [compound 9518, 2-(4-Methoxy-benzoylamino)-N-{4-[2-(6,7-dimethoxy-3,4-dihydro-1H-isoquinolin-2-yl)-ethyl]-phenyl}-benzamide], for which the pIC50 in series [1] is 6.52; in series [2] (setting [4]), 5.82; in series [2] (setting [5]), 7.72. The “Potentiation Index at RMA concentration 300 nM” value in series [3] is 120. Moreover, in series [3], the “Potentiation Index at RMA concentration 500 nM” value is reported as 240.
For `COc1cc2c(cc1OC)CN(CCc1ccc(NC(=O)c3ccccc3NC(=O)c3cccc(F)c3)cc1)CC2` [compound 9500, 2-(3-Fluoro-benzoylamino)-N-{4-[2-(6,7-dimethoxy-3,4-dihydro-1H-isoquinolin-2-yl)-ethyl]-phenyl}-benzamide], the pIC50 in series [1] is 6.72; in series [2] (setting [4]), 5.30; in series [2] (setting [5]), 8.05. Besides, in series [3], the “Potentiation Index at RMA concentration 30 nM” value is given as 5.5. The “Potentiation Index at RMA concentration 100 nM” value in series [3] worked out at 97. For the same compound, the “Potentiation Index at RMA concentration 300 nM” value in series [3] turned out to be 300.
As for `COc1cc2c(cc1OC)CN(CCc1ccc(NC(=O)c3ccccc3NC(=O)c3ccc(F)cc3)cc1)CC2` [compound 9501, 2-(4-Fluoro-benzoylamino)-N-{4-[2-(6,7-dimethoxy-3,4-dihydro-1H-isoquinolin-2-yl)-ethyl]-phenyl}-benzamide], the pIC50 in series [1] is 6.92; in series [2] (setting [4]), 5.52; in series [2] (setting [5]) it was 7.40. Further, in series [3], the “Potentiation Index at RMA concentration 30 nM” value came out at 1.9. In series [3], the “Potentiation Index at RMA concentration 100 nM” value is given as 69. Also, in series [3], the “Potentiation Index at RMA concentration 300 nM” value is listed as 183.
`COc1cc2c(cc1OC)CN(CCc1ccc(NC(=O)c3ccccc3NC(=O)c3ccc(C4CCCCC4)cc3)cc1)CC2` [compound 9461, 2-(4-Cyclohexyl-benzoylamino)-N-{4-[2-(6,7-dimethoxy-3,4-dihydro-1H-isoquinolin-2-yl)-ethyl]-phenyl}-benzamide]: the pIC50 in series [1] is 5.74; in series [2] (setting [4]) it was 5.12; in series [2] (setting [5]) it was 6.52. For the same compound, the “Potentiation Index at RMA concentration 300 nM” value in series [3] was 13. In series [3], the “Potentiation Index at RMA concentration 500 nM” value is 30.
As to `COc1cc2c(cc1OC)CN(CCc1ccc(NC(=O)c3cc(C)ccc3NC(=O)c3cnc4ccccc4c3)cc1)CC2` [compound 9584, Quinoline-3-carboxylic acid (2,-{4-[2-(6,7-dimethoxy-3,4-dihydro-1H-isoquinolin-2-yl)-ethyl]-phenylcarbamoyl}-4-methyl-phenyl)-amide], in series [1], the pIC50 was 6.44. In series [2] (setting [4]), the pIC50 is 5.07. In addition, in series [3], the “Potentiation Index at RMA concentration 10 nM” value is 2.1 and the “Potentiation Index at RMA concentration 30 nM” value amounted to 36.
For the compound `COc1cc2c(cc1OC)CN(CCc1ccc(NC(=O)c3ccccc3NC(=O)c3ccc(C(C)C)cc3)cc1)CC2` [compound 9447, 2-(4-Isopropyl-benzoylamino)-N-{4-[2-(6,7-dimethoxy-3,4-dihydro-1H-isoquinolin-2-yl)-ethyl]-phenyl}-benzamide], the pIC50 in series [1] is 6.15; in series [2] (setting [4]), 5.17; in series [2] (setting [5]), 7.19. Besides, in series [3], the “Potentiation Index at RMA concentration 300 nM” value amounted to 40. Further, the “Potentiation Index at RMA concentration 500 nM” value in series [3] is listed as 340.
As for `COc1cc2c(cc1OC)CN(CCc1ccc(NC(=O)c3ccccc3NC(=O)c3ccccc3C)cc1)CC2` [compound 9497, 2-(2-Methyl-benzoylamino)-N-{4-[2-(6,7-dimethoxy-3,4-dihydro-1H-isoquinolin-2-yl}-ethyl]-phenyl}-benzamide], the pIC50 was 5.80 in series [1], 5.05 in series [2] (setting [4]) and 7.10 in series [2] (setting [5]). In addition, in series [3], the “Potentiation Index at RMA concentration 300 nM” value amounted to 52. Further, in series [3], the “Potentiation Index at RMA concentration 500 nM” value amounted to 200.
In the case of `COc1cc2c(cc1OC)CN(CCc1ccc(NC(=O)c3ccccc3NC(=O)c3cc4ccccc4o3)cc1)CC2` [compound 9539, Benzofuran-2-carboxylic acid (2-{4-[2-(6,7-dimethoxy-3,4-dihydro-1H-isoquinolin-2-yl)-ethyl]-phenylcarbamoyl}-phenyl)-amide], the results for the pIC50 in series [1], in series [2] (setting [4]) and in series [2] (setting [5]) were 6.66, 5.77 and 7.96, respectively. The “Potentiation Index at RMA concentration 100 nM” value in series [3] was determined as 32. The “Potentiation Index at RMA concentration 300 nM” value in series [3] worked out at 128.
In the case of `COc1cc2c(cc1OC)CN(CCNC(=O)c1ccccc1NC(=O)c1ccc(Oc3ccccc3)cc1)CC2` [compound 9426, 2-(4-Phenoxy-benzoylamino)-N-[2-(6,7-dimethoxy-3,4-dihydro-1H-isoquinolin-2-yl)-ethyl]-benzamide], the figures for the pIC50 in series [1], in series [2] (setting [4]) and in series [2] (setting [5]) were 6.16, 5.15 and 7.22, respectively. Also, in series [3], the “Potentiation Index at RMA concentration 500 nM” value is on record as 65.
For `COc1cc2c(cc1OC)CN(CCNC(=O)c1c(Cl)cccc1NC(=O)c1ccc(C(C)C)cc1)CC2` [compound 9405, 2-(4-Isopropyl-benzoylamino)-N-[2-(6,7-dimethoxy-3,4-dihydro-1H-isoquinolin-2-yl)-ethyl]-6-chioro-benzamide] the same measures were 6.52, 4.66, 7.05 and 8.6.
For the compound `COc1cc2c(cc1OC)CN(Cc1ccc(NC(=O)c3ccccc3NC(=O)c3cnc4ccccc4c3)cc1)CC2` [compound 9585, Quinoline-3-carboxylic acid {2-[4-(6,7-dimethoxy-3,4-dihydro-1H-isoquinolin-2-ylmethyl)-phenylcarbamoyl]-phenyl}-amide], the pIC50 is 7.40 in series [1] and 5.04 in series [2] (setting [4]). Further, the “Potentiation Index at RMA concentration 10 nM” value in series [3] was 1.3. The “Potentiation Index at RMA concentration 30 nM” value in series [3] is given as 7.2.
As to `COc1cc2c(cc1OC)CN(CCNC(=O)c1ccccc1NC(=O)c1ccc3ccccc3c1)CC2` [compound 9295, Naphthalene-2-carboxylic acid {2-[2-(6,7-dimethoxy-3,4-dihydro-1H-isoquinolin-2-yl)-ethylcarbamoyl]-phenyl}-amide], the results for the pIC50 in series [1], in series [2] (setting [4]) and in series [2] (setting [5]) were 6.41, 4.40 and 6.22, respectively. Also, the “Potentiation Index at RMA concentration 300 nM” value in series [3] was 16.
